Values of other authors as cited in patent US11964046B2, “Topical composition for the control of pain in animals” (priority 2016, dated 2024).

System: piglets
[1] = lidocaine injected at least three minutes prior to castration, p<0.001

CCN(CC)CC(=O)Nc1c(C)cccc1C [lidocaine]
pain during castration (study conclusion) (injected): reduced pain during castration
intensity of calls during castration [1]: lower intensity
resistance movements during castration [1]: less resistance movements
